The record followed here is patent US20230250054A1, “SELECTIVE HISTONE DEACETYLASE 6 INHIBITORS” (The Board of Trustees of the University of Illinois, priority 2020, published 2023).

The test system of data set [1] is Ac-α-tubulin. As to the kind of experiment: Immunoblot of Ac-α-tubulin in WM164 melanoma cells. The note with it: 0.1 to 10 μM, overnight. The class given is cell-based, human. How it is done:
(§1) The SM1 murine melanoma cells were obtained from Dr. A. Ribas at the University of California, Los Angeles. WM164 human melanoma cells were obtained from ATCC. The cells were cultured in an incubator in RPMI 1640, 1% penicillin-streptomycin, and 10% fetal bovine serum at 37° C. with 5% CO2. […] For STAT3 phosphorylation assays, cells were pre-treated with or without HDAC6i (5 μM) for overnight followed by treatment with recombinant human IL-6 (Biolegend) for 20 min. PBS was added as a control. RAW 264.7 macrophages were purchased from ATCC and cultured in DMEM medium supplemented with 10% FBS, 1% non-essential amino acids, and 2-mercaptoethanol (50 μM). […] Cytotoxicity assay was performed using CellTox Green (Promega, Cat #G8731) following the manufacturer's instructions, and fluorescence readings were obtained on Spectramax i3 (Molecular Devices) multimode plate reader at wavelengths EX 485 nm and EM 520 nm. […]
(§2) The cells were harvested and lysed with RIPA buffer (ThermoScientific, 89900) containing protease and phosphatase inhibitors (ThermoScientific, 78440) by sonication in Bioruptor (Diagenode) for 8 cycles of 30 seconds ON and 30 seconds OFF on high setting. To assess the expression of proteins, total protein samples were heat-denatured in SDS sample loading buffer, and 15-20 μg of protein was analysed on 4-20% SDS-PAGE gels (Bio-Rad, 456-1093). […]
(A western blot detects proteins with antibodies after separation by electrophoresis.)

A further data set deals with Ac—H3. Nature of the data set: Immunoblot of Ac-H3 in WM164 melanoma cells. The class given is cell-based, human. The note with it: 0.1 to 10 μM, overnight. How it is done: as §1, §2
Another data set deals with IL10 gene. Nature of the data set: IL10 gene expression by quantitative PCR in bone marrow-derived macrophages. The format is cell-based. The note with it: mouse bone marrow-derived macrophages, 5 μM, vs vehicle, mRNA quantification. The procedure: Total RNA was isolated from cells following the manufacturer's instructions of QIAzol (Qiagen, 79306). RNA quantification was done using NanoDrop One spectrophotometer (NanoDrop Technologies). Samples with absorbance at 260/280 ratios over 1.9 were used for cDNA synthesis with iScript cDNA synthesis kit (Bio-Rad, 1708891). Synthesized cDNA from 1 μg of total RNA was diluted 1:10 with nuclease-free water. The quantitative PCR analysis was performed using iQ SYBR Green Supermix (Bio-Rad, 1708882) on CFX96 real-time system (Bio-Rad). Gene expression analysis was performed using 2^−ΔΔCt method, and target mRNA levels were normalized to GAPDH expression. Cycling conditions were used as per manufacturer's instructions. Single PCR product amplification was confirmed by melting curve analysis in all the experiments performed. The sequence of primers used in the analysis are as follows: […]
Immune cells, such as macrophages, are a major cellular component of the tumor microenvironment. Tumor-associated macrophages are often tumor promoting by secreting anti-inflammatory cytokines such as TGFβ and IL-10. It was previously established that HDAC6 forms a complex with STAT3, and either pharmacological inhibition or shRNA mediated knockdown of HDAC6 decreased STAT3 recruitment at the IL10 promoter region in antigen-presenting cells (see, e.g., Cheng et al., J. Immunol. 193: 2850-2862 (2014)). […]

Data set [2] concerns Ac-α-tubulin. As to the kind of experiment: Immunoblot of Ac-α-tubulin in RAW 264.7 macrophages. The class given is cell-based. The note with it: 1, 5, and 10 μM, overnight, listed as Suprastat. The procedure: as §1, §2
In the next data set the test system is STAT3. As to the kind of experiment: IL-6 induced STAT3 phosphorylation in WM164 melanoma cells. The class given is cell-based, human. The note with it: WM164 cells pre-treated with 5 μM, then IL-6 (30 ng/mL) for 20 min, vs IL-6 alone. The procedure:
as §1, §2

A further data set has as its system SM1 melanoma tumors. Nature of the data set: Syngeneic SM1 murine melanoma model, tumor growth. The format is in vivo. The note with it: C57BL/6 mice with SM1 tumors; Suprastat 25 mg/kg IP, anti-PD1 15 mg/kg IP; vs control (PBS).
Another data set has as its system immune cells. Nature of the data set: Immune cell phenotyping by flow cytometry in the SM1 melanoma model. The class given is in vivo, C57BL/6 mice. How it is done: To understand the immunomodulatory properties of Suprastat, a comprehensive immune cell phenotyping by flow cytometry was performed. […] (see, e.g., Knox et al., Sci. Rep. 9: 6136 (2019)). […] A significant change in immunosuppressive T-regs (FIG. 6F) was not observed. […] (see, e.g., Knox et al., Sci. Rep. 9: 6136 (2019)).
(In general: In flow cytometry, cells or beads pass a laser one at a time.)

A further data set in a line: physchem. The note with it: PBS.
A further data set in a line: in vitro. The note with it: rat, liver microsomes. For orientation: Microsomes from liver hold many membrane-bound enzymes, among them those of drug oxidation.
The test system of data set [3] is SM1 murine melanoma cells. As to the kind of experiment: CellTox Green cytotoxicity assay in SM1 cells. The format is cell-based. The note with it: 24 h. How it is done: The SM1 murine melanoma cells were obtained from Dr. A. Ribas at the University of California, Los Angeles. WM164 human melanoma cells were obtained from ATCC. The cells were cultured in an incubator in RPMI 1640, 1% penicillin-streptomycin, and 10% fetal bovine serum at 37° C. with 5% CO2. […] For STAT3 phosphorylation assays, cells were pre-treated with or without HDAC6i (5 μM) for overnight followed by treatment with recombinant human IL-6 (Biolegend) for 20 min. PBS was added as a control. RAW 264.7 macrophages were purchased from ATCC and cultured in DMEM medium supplemented with 10% FBS, 1% non-essential amino acids, and 2-mercaptoethanol (50 μM). RAW macrophages were treated with 1 μM, 5 μM, and 10 μM of Suprastat overnight before collecting the lysates for immunoblot assay. Cytotoxicity assay was performed using CellTox Green (Promega, Cat #G8731) following the manufacturer's instructions, and fluorescence readings were obtained on Spectramax i3 (Molecular Devices) multimode plate reader at wavelengths EX 485 nm and EM 520 nm. SM1 cells were treated with compounds at various concentrations for 24 h to determine cytotoxicity.

“Also recorded” adds a separate entry of the source.

Regarding `NCc1ccc(NC(=O)N(CCCCO)Cc2ccc(C(=O)NO)cc2)cc1` [Compound 6a, 4-((3-(4-(Aminomethyl)phenyl)-1-(4-hydroxybutyl)ureido)methyl)-N-hydroxybenz-amide], the “levels of acetylated α-tubulin (Ac-α-tubulin)” value in the data set on Ac-α-tubulin [1] is given as “highest Ac-α-tubulin level”. Further, the “levels of acetylated histone H3 (Ac—H3)” value in the data set on Ac—H3 is reported as “slight increase in the levels of Ac—H3”. Besides, in the data set on IL10 gene, the “expression of IL10 gene” value is “decreased expression of IL10 gene”. Also, the “levels of Ac-α-tubulin in RAW 264.7 macrophages” value in the data set with Ac-α-tubulin [2] is reported as “dose-dependent effect; also recorded: dose-dependent increase in the levels of Ac-α-tubulin”. In addition, the “Y705 phosphorylation of STAT3” value in the data set on STAT3 is listed as “decreased Y705 phosphorylation of STAT3”. Further, the “tumor burden (tumor volume)” value in the data set on SM1 melanoma tumors was “reduced the tumor burden”. Besides, in the data set on immune cells (flow cytometry), the “F4/80+CD206+ pro-tumor M2 macrophages” value is “significantly decreased”, the “natural killer (NK) cells” value is “positive trend” and the “percentage of CD8+ central memory (CM) cells” value was “increase in the percentage of CD8+ central memory (CM) cells”. Besides, the M1/M2 ratio result in the data set with immune cells (relative to control and anti-PD1 groups) is reported as “significantly higher M1/M2 ratio”. In “physchem”, the half-life (commonly the time needed for the level to fall by half in the phase considered) is more than 24 h. In the data set “in vitro”, the half-life was found to be 2.88 h.
In the case of `CCCCN(Cc1ccc(C(=O)NO)cc1)C(=O)Nc1ccc(CN)cc1` [Compound 6b, 4-((3-(4-(Aminomethyl)phenyl)-1-butylureido)methyl)-N-hydroxybenzamide], in data set [3], the “concentration at which cytotoxicity starts” value turned out to be 10 µM.
